Patent US12649722B2, “Herbicidal cinnoline derivatives” (SYNGENTA CROP PROTECTION AG, priority 2020, dated 2026)

Assays:
Type in all cases: in vivo
[1] = tested on: ABUTH; assay: Post-emergence Test, ABUTH; conditions: sprayed after 8 days cultivation, 1000 g/ha, evaluated after 13 days
[2] = tested on: Ipornoea hederacea (IPOHE); assay: Pre-emergence Test, IPOHE; conditions: 1000 g/ha, evaluated after 13 days
[3] = tested on: Setaria faberi (SETFA); assay: Pre-emergence Test, SETFA; conditions: 1000 g/ha, evaluated after 13 days
[4] = tested on: ABUTH; assay: Pre-emergence Test, ABUTH; conditions: 1000 g/ha, evaluated after 13 days
[5] = tested on: Amaranthus retoflexus (AMARE); assay: Pre-emergence Test, AMARE; conditions: 1000 g/ha, evaluated after 13 days
[6] = tested on: Solarium nigrum (SOLNI); assay: Pre-emergence Test, SOLNI; conditions: 1000 g/ha, evaluated after 13 days
[7] = tested on: ZEAMX; assay: Post-emergence Test, ZEAMX; conditions: sprayed after 8 days cultivation, 1000 g/ha, evaluated after 13 days
[8] = tested on: Lolium perenne (LOLPE); assay: Pre-emergence Test, LOLPE; conditions: 1000 g/ha, evaluated after 13 days
[9] = tested on: Lolium perenne (LOLPE); assay: Post-emergence Test, LOLPE; conditions: sprayed after 8 days cultivation, 1000 g/ha, evaluated after 13 days
Description: (§1) Seeds of a variety of test species are sown in standard soil in pots (Amaranthus retoflexus (AMARE), Solarium nigrum (SOLNI), Setaria faberi (SETFA), Lolium perenne (LOLPE), Echinochloa crus-galli (ECHCG), Ipornoea hederacea (IPOHE)). After 8 days cultivation under controlled conditions in a glasshouse (at 24° C./16° C., day/night; 14 hours light; 65% humidity), the plants are sprayed with an aqueous spray solution derived from the formulation of the technical active ingredient in acetone/water (50:50) solution containing 0.5% Tween 20 (polyoxyethylene sorbitan monolaurate, CAS RN 9005-64-5). Compounds are applied at 1000 g/ha unless otherwise stated. The test plants are then grown in a glasshouse under controlled conditions in a glasshouse (at 24° C./16° C., day/night; 14 hours light; 65% humidity) and watered twice daily. After 13 days the test is evaluated for the percentage damage caused to the plant. The biological activities are shown in the following table on a five-point scale (5=81-100%; 4=61-80%; 3=41-60%; 2=21-40%; 1=10-20%; 0=0%; −=not tested).

[10] = tested on: Echinochloa crus-galli (ECHCG); assay: Pre-emergence Test, ECHCG; conditions: 1000 g/ha, evaluated after 13 days
[11] = tested on: ZEAMX; assay: Pre-emergence Test, ZEAMX; conditions: 1000 g/ha, evaluated after 13 days
[12] = tested on: Solarium nigrum (SOLNI); assay: Post-emergence Test, SOLNI; conditions: sprayed after 8 days cultivation, 1000 g/ha, evaluated after 13 days
Description: as §1

[13] = tested on: Amaranthus retoflexus (AMARE); assay: Post-emergence Test, AMARE; conditions: sprayed after 8 days cultivation, 1000 g/ha, evaluated after 13 days
Procedure, shortened: (§2)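 Pots sown with AMARE, SOLNI, SETFA, LOLPE, ECHCG, IPOHE, kept in glasshouse (24/16 °C, 14 h light, 65% humidity), sprayed at 1000 g/ha unless stated, in acetone/water 50:50 with 0.5% Tween 20. Damage scored after 13 days on a 0–5 scale (5=81–100%, 0=0%).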

[14] = tested on: Ipornoea hederacea (IPOHE); assay: Post-emergence Test, IPOHE; conditions: sprayed after 8 days cultivation, 1000 g/ha, evaluated after 13 days
Procedure, shortened: as §2

[15] = tested on: Echinochloa crus-galli (ECHCG); assay: Post-emergence Test, ECHCG; conditions: sprayed after 8 days cultivation, 1000 g/ha, evaluated after 13 days
Procedure, shortened: as §2

[16] = tested on: Setaria faberi (SETFA); assay: Post-emergence Test, SETFA; conditions: sprayed after 8 days cultivation, 1000 g/ha, evaluated after 13 days
Procedure, shortened: as §2

SMILES	percentage damage caused to the plant, ABUTH [1]	percentage damage caused to the plant, IPOHE [2]	percentage damage caused to the plant, SETFA [3]	percentage damage caused to the plant, ABUTH [4]	percentage damage caused to the plant, AMARE [5]	percentage damage caused to the plant, SOLNI [6]	percentage damage caused to the plant, ZEAMX [7]	percentage damage caused to the plant, LOLPE [8]	percentage damage caused to the plant, LOLPE [9]	percentage damage caused to the plant, ECHCG [10]	percentage damage caused to the plant, ZEAMX [11]	percentage damage caused to the plant, SOLNI [12]	percentage damage caused to the plant, AMARE [13]	percentage damage caused to the plant, IPOHE [14]	percentage damage caused to the plant, ECHCG [15]	percentage damage caused to the plant, SETFA [16]
N#Cc1cccc2c1c(=O)c(C(=O)O)nn2-c1ccc(OC(F)(F)F)cc1 [Compound P8, 5-cyano-4-oxo-1-[4-(trifluoromethoxy)phenyl] cinnoline-3-carboxylic acid]	1 (1=10-20%)	1 (1=10-20%)	5 (5=81-100%)	1 (1=10-20%)	2 (2=21-40%)	1 (1=10-20%)	2 (2=21-40%)	4 (4=61-80%)	4 (4=61-80%)	5 (5=81-100%)	0 (0=0%)	3 (3=41-60%)	4 (4=61-80%)	4 (4=61-80%)	4 (4=61-80%)	4 (4=61-80%)
C=C(OC)c1cccc2c1c(=O)c(C(=O)OC)nn2-c1ccc(OC(F)(F)F)cc1 [Compound P4, methyl 5-(1-methoxyvinyl)-4-oxo-1-[4-(trifluoromethoxy)phenyl] cinnoline-3-carboxylate]		0 (0=0%)	5 (5=81-100%)		0 (0=0%)	0 (0=0%)		5 (5=81-100%)	4 (4=61-80%)	5 (5=81-100%)		0 (0=0%)	0 (0=0%)	4 (4=61-80%)	4 (4=61-80%)	4 (4=61-80%)
C=C(OCC)c1cccc2c1c(=O)c(C(=O)OC)nn2-c1ccc(OC(F)(F)F)cc1 [Compound P3, methyl 5-(1-ethoxyvinyl)-4-oxo-1-[4-(trifluoromethoxy)phenyl] cinnoline-3-carboxylate]	3 (3=41-60%)	2 (2=21-40%)	5 (5=81-100%)	3 (3=41-60%)	0 (0=0%)	2 (2=21-40%)	3 (3=41-60%)	4 (4=61-80%)	4 (4=61-80%)	4 (4=61-80%)	4 (4=61-80%)	4 (4=61-80%)	1 (1=10-20%)	3 (3=41-60%)	4 (4=61-80%)	4 (4=61-80%)
